One series deals with subjects with MDD. As to the kind of experiment: SMDDS total score (Example 6). The series is classed as in vivo, human. To be noted: 10 mg; Treatment Week 6; 59 subjects analyzed. The text has this: SMDDS is a subjective rating of the patient. The SMDDS is a 16-item PRO measure. Each item is rated by the subject according to a 5-point Likert scale. Subjects respond to each question using a rating scale between 0 (“Not at all” or “Never”) to 4 (“Extremely” or “Always”). The total score ranges […]. The SMDDS uses a 7-day recall period and verbal rating scales. Higher score indicates more severe depressive symptomatology.
iv. To investigate the effect of aticaprant on symptoms of depression using the Clinical Global Impression-Severity (CGI-S), the patient reported Symptoms of Major Depressive Disorder Scale (SMDDS) and the self-assessment of treatment experience (SATE).
• (i) Depression: Montgomery-Åsberg Depression Rating Scale (MADRS), Clinical Global Impression-Severity (CGI-S), Symptoms of Major Depressive Disorder Scale (SMDDS), and Self-assessment of treatment experience (SATE) • (ii) Anhedonia: Snaith-Hamilton Pleasure Scale (SHAPS) • (iii) Anxiety: Structured Interview Guide for the Hamilton Anxiety scale (SIGH-A) and HAM-A6 • (iv) Effects on Cognition: The Cognitive and Physical Functioning Questionnaire (CPFQ) • (v) Safety assessments

The nature of series [1]: Plasma Cmax of aticaprant in subjects with MDD (Example 6). The class given is in vivo. To be noted: human, oral, 10 mg, 10 mg once daily, read-out: Cmax, Arithmetic Mean (SD). From the text: vi. To assess the plasma PK of aticaprant in subjects with MDD and explore its relationship with efficacy and safety parameters.
Cmax is defined as maximum plasma concentration of aticaprant. […] Here ‘N’ (number of subjects analyzed) includes the number of subjects evaluable for this endpoint. Here ‘n’ (number analyzed) included all subjects evaluable for specified time point categories.

Where two headings read alike, the source gives them in different places.

Turning to `Cc1cc(C)cc(C2CCCN2Cc2ccc(Oc3ccc(C(N)=O)cc3F)cc2)c1` (stereo not shown) [aticaprant, 3-fluoro-4-4-2-(3,5-dimethylphenyl)pyrrolidin-1-yl-methylphenoxybenzamide], the “Change from Treatment Baseline in SMDDS Total Score, Arithmetic Mean (SD)” value with subjects with MDD is −8.03 ± 9.957 Scores on a scale. For the same compound, the Cmax (as a rule, the peak of the concentration-time curve) turned out to be 32.7 ± 10.9 ng/mL in series [1] (Week 1, eITT); 33.5 ± 11.1 ng/mL in series [1] (Week 3, eITT); 34.3 ± 11.1 ng/mL in series [1] (Week 6, eITT).

These data come from patent US12201610B2, “Compositions comprising aticaprant” (Janssen Pharmaceuticals, Inc., priority 2022, dated 2025).
